Laboratory results: patent publication US20260286309A1, “DIFFERENTIATION OF IPSCS IN BIOREACTORS” (REPAIRON GMBH, priority 2022, published 2026)

Experiments:
iPSCs (TC1133) [1] = experiment: Cardiac differentiation of iPSCs in suspension (ambr15, 2-factor protocol CHIR/IWP4); format: cell-based, human
Procedure: The cardiac differentiation potential of iPSCs after long-term culture was assessed by direct differentiation into iPSC-CMs using a published 2-factor protocol (Chen et al., 2015). iPSC aggregates were differentiated in the ambr15 system and the medium was exchanged manually. Briefly, the basal medium on day 0-5 consisted of RPMI 1640+2% B-27 supplement without insulin. From day 6 onwards the basal medium was RPMI 1640+2% b-27 supplement. To initiate mesodermal differentiation, CHIR was added in varying concentrations on day 1. 5 μM IWP4 was added on day 2 and 3 or day 3 and 4 to initiate cardiac differentiation. A main goal of this project was to ensure that the cardiac differentiation potential remains in iPSCs that are cultivated with the developed expansion strategy. The cardiac differentiation potential was assessed by using a published protocol for the directed cardiac differentiation of PSCs in suspension culture (Chen et al., 2015). iPSCs in suspension were successfully differentiated into iPSC-CMs during early passages (Cultivation Optimization Run 12) and during late passages (Cultivation Optimization Run 13) of long-term cultures. Thereby, proof of concept was shown that iPSCs generated with the developed expansion strategy can be used to produce iPSC-CMs in suspension culture.

iPSCs (TC1133) [2] = experiment: Y27632 pretreatment before automatic passaging of iPSC aggregates in ambr15 suspension culture (Cultivation Optimization Run 08); format: cell-based, human
Excerpt: The nucleocounter NC-200 offers fast and reliable assessment of cell number and viability. Furthermore, it is GMP-compliant and is used during the production stage. Single cell suspensions may be directly measured with the NC-200, whereas suspensions with high content of cell clumps should be treated according to special protocols, supplied with the NC-200. These protocols include cell lysis to ensure distinguishability of single nuclei. However, large iPSC aggregates of about 70-250 μm, which were obtained in the suspension culture, could not be sufficiently lysed with the provided protocols within a reasonable time. Therefore, iPSC aggregates were digested using TrypLE before measurement with the NC-200. […] This suspension was then used for measurement with the NC-200 using the “Viability and Cell Count—A100 and B Assay” intended for small cell aggregates.
The pluripotency state of iPSCs was assessed by analyzing the pluripotency-related markers NANOG, TRA-1-60, and OCT4 using flow cytometry. iPSC aggregates were digested with TrypLE to achieve a near singe cell suspension. Subsequently the cells were fixed by adding Histofix to the cell suspension in a 1:1 ratio (resulting in 2% PFA). For analysis, the cells were stained with fluorochrome-conjugated antibodies. Dead cells were excluded from the analysis with Hoechst staining. Accordingly, the expression of a-Actinin and cTNT was analyzed to assess the success of cardiac differentiation.
The aggregate size was analyzed using a Cellavista device. Culture samples were transferred into a 24-well plate prepared with PBS (—Ca2+/—Mg2+) and measured with the Cellavista. Images were processed by the Cellavista software by applying a threshold to discriminate aggregates from background. The software FIJI (Schindelin et al., 2012) was subsequently used to analyze aggregate size.
To increase the degree of reaggregation, pretreatment with ROCK inhibitor Y27632 was tested. Pretreatment of iPSCs with Y27632 has been reported for other procedures that require cell singularization and are stressful for iPSCs (Chatterjee et al., 2011). […]

Structure (SMILES)	optimal concentration for successful cardiac differentiation (iPSCs (TC1133) [1]; iPSCs of earlier passages (passage 0))	optimal concentration for successful cardiac differentiation (iPSCs (TC1133) [1]; iPSCs of later passages (passage 8))	expression of NANOG (iPSCs (TC1133) [2]; day 3, passage 1, flow cytometry, Y27632 pretreatment)	expansion rate (iPSCs (TC1133) [2]; day 5, passage 1, 10 μM Y27632 pretreatment, Versene passaging)	aggregate size (mean) (iPSCs (TC1133) [2]; passage 1, Y27632 pretreatment)
Cc1c[nH]c(-c2cnc(NCCNc3ccc(C#N)cn3)nc2-c2ccc(Cl)cc2Cl)n1 [CHIR, CHIR99021]	6 µM	18 µM	–	–	–
C[C@@H](N)[C@H]1CC[C@H](C(=O)Nc2ccncc2)CC1 [Y27632]	–	–	93%	9 fold	162 μm
